Series [1] deals with Target C. The experiment in a line: RT-qPCR canonical junction panel assay, Target C mRNA. It counts as cell-based. The following applies: Table 4, read-out: Target C IC50 (decrease in CJ mRNA levels). The method, boiled down: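 A673 or K562 cells treated with compound; CJ mRNA quantified by junction-spanning RT-qPCR probe after cDNA synthesis, normalised to GAPDH, GUSB or PPIA and DMSO (2^−ΔΔCt), scaled to set ΔCt assay window; IC50 from 4-parameter fit of CJ decrease.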

The subject of another series is HTT. The experiment in a line: HiBiT protein abundance assay, HTT (K562 HiBiT knock-in). It counts as cell-based, human. The following applies: HiBiT knock-in K562 cells, 24 hours, top dose 10 μM. The method, boiled down: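 Endogenously HiBiT-tagged K562 lines were treated for 24 h at 37 °C with 10-point 3-fold dilutions (top 10 μM final, DMSO ≤0.25%). Lytic LgBiT complementation luminescence was normalized between unmodified K562 (PC) and DMSO-treated tagged cells (NC); IC50 was interpolated at 50% from a four-parameter logistic fit.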
Background: HiBiT is a short tag that completes a luciferase, so light tracks the accessible tagged protein.

Series [2] relates to Target C. As to the kind of experiment: HiBiT protein abundance assay, Target C (K562 HiBiT knock-in). Conditions: HiBiT knock-in K562 cells, 24 hours, top dose 10 μM. It is filed as cell-based, human. The method, boiled down:
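K562 HiBiT knock-in cells (10000/well) were treated 24 h at 37° C with a 10-point 3-fold dilution series (top 10 μM final, ≤0.25% DMSO). HiBiT luminescence was read after lytic LgBiT detection. Percent response used unmodified K562 and DMSO-treated knock-in controls, and IC50 came from a four-parameter fit at 50% of untreated.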

The subject of the next series is K562 cells. The experiment in a line: Cell Titer Glo 2.0 cell viability (toxicity) assay, K562. The following applies: 500 cells/well, 72 hours.

As usually defined, the IC50 is the concentration needed to halve the response being measured.

Regarding `CNC(=O)c1nc(-c2cc3cn(C)nc3c(C)c2O)nc2ccc(N3C[C@@H](C)N[C@@H](C)C3)cc12` [Compound 511, 6-[(3R,5S)-3,5-dimethylpiperazin-1-yl]-2-(6-hydroxy-2,7-dimethylindazol-5-yl)-N-methylquinazoline-4-carboxamide], the IC50 fell in the range of 1000 to 10000 nM with Target C [1], 100 to 1000 nM in the series with HTT and 1000 to 10000 nM in the series on Target C [2]. Besides, the “Effect of Exemplary Compounds on Cell Viability, K562” value (from here on “Effect of Exemplary Compounds”) in the series with K562 cells is reported as “A (A represents <100 nM)”.
Take `CC(=O)c1nc(-c2cc3cn(C)nc3c(F)c2O)nc2ccc(N3CCNCC3)cc12` [Compound 513, 1-(2-(7-fluoro-6-hydroxy-2-methyl-2H-indazol-5-yl)-6-(piperazin-1-yl)quinazolin-4-yl)ethan-1-one 2,2,2-trifluoroacetate]: the figures for the IC50 in the series with Target C [1], in the series with HTT and with Target C [2] were 1000 to 10000 nM, 100 to 1000 nM and 1000 to 10000 nM, respectively. In addition, the “Effect of Exemplary Compounds” value in the series with K562 cells is listed as “A (A represents <100 nM)”.
Regarding `Cn1cc2cc(-c3nc(C#N)c4cc(N5CCNCC5)ccc4n3)c(O)c(F)c2n1` [Compound 514, 2-(7-fluoro-6-hydroxy-2-methylindazol-5-yl)-6-(piperazin-1-yl) quinazoline-4-carbonitrile; trifluoroacetic acid], the IC50 lay in the range of 1000 to 10000 nM with Target C [1], 100 to 1000 nM in the series on HTT and 100 to 1000 nM in the series on Target C [2]. Also, the “Effect of Exemplary Compounds” value with K562 cells is listed as “A (A represents <100 nM)”.
For the compound `Cc1c(O)c(-c2ccc3cc(N4CCNCC4)cc(F)c3n2)cc2cn(C)nc12` [Compound 515, 5-[8-fluoro-6-(piperazin-1-yl)quinolin-2-yl]-2,7-dimethylindazol-6-ol], the results for the IC50 in the series with Target C [1], with HTT and in the series on Target C [2] were 100 to 1000 nM, less than 100 nM and less than 100 nM, respectively. Moreover, the “Effect of Exemplary Compounds” value in the series on K562 cells is “A (A represents <100 nM)”.
For the compound `Cn1cc2cc(-c3ccc4cc(N5CCNCC5)cc(F)c4n3)cc(F)c2n1` [Compound 516, 8-fluoro-2-(7-fluoro-2-methylindazol-5-yl)-6-(piperazin-1-yl)quinoline], the figures for the IC50 in the series with Target C [1], in the series with HTT and with Target C [2] were 100 to 1000 nM, less than 100 nM and 100 to 1000 nM, respectively. The “Effect of Exemplary Compounds” value in the series with K562 cells is listed as “B (B represents 100-1000 nM)”.
On to `Cc1cn2cc(-c3ccc4cc(N5CCNCC5)cc(F)c4n3)cc(F)c2n1` [Compound 517, 8-fluoro-2-{8-fluoro-2-methylimidazo[1,2-a]pyridin-6-yl}-6-(piperazin-1-yl)quinoline], for which the half-inhibitory concentration (IC50) in the series with Target C [1] was 100 to 1000 nM; in the series on HTT, less than 100 nM; with Target C [2] it was 100 to 1000 nM. In the series on K562 cells, the “Effect of Exemplary Compounds” value is recorded as “A (A represents <100 nM)”.
Consider `Cn1cc2cc(-c3nc(C4CC4)c4cc(N5CCNCC5)ccc4n3)c(O)c(F)c2n1` [Compound 518, 5-[4-cyclopropyl-6-(piperazin-1-yl)quinazolin-2-yl]-7-fluoro-2-methylindazol-6-ol; trifluoroacetic acid], for which the IC50 was greater than 10000 nM in the series with Target C [1], 1000 to 10000 nM in the series with HTT and 1000 to 10000 nM in the series on Target C [2]. For the same compound, in the series with K562 cells, the “Effect of Exemplary Compounds” value was “B (B represents 100-1000 nM)”.
As to `Cc1c(O)c(-c2nc(-c3cncs3)c3cc(N4CCNCC4)ccc3n2)cc2cn(C)nc12` [Compound 519, 2,7-dimethyl-5-[6-(piperazin-1-yl)-4-(1,3-thiazol-5-yl)quinazolin-2-yl]indazol-6-ol], the values for the half-maximal inhibitory concentration (IC50) in the series on Target C [1], in the series with HTT and in the series with Target C [2] were greater than 10000 nM, 1000 to 10000 nM and 1000 to 10000 nM, respectively. Also, in the series with K562 cells, the “Effect of Exemplary Compounds” value is reported as “B (B represents 100-1000 nM)”.
Consider `Cc1c(O)c(-c2ncc3cc(N4CCNCC4)ccc3n2)cc2cn(C)nc12` [Compound 520, 2,7-dimethyl-5-[6-(piperazin-1-yl)quinazolin-2-yl]indazol-6-ol], for which the results for the IC50 in the series with Target C [1], in the series with HTT and in the series on Target C [2] were 1000 to 10000 nM, 100 to 1000 nM and 100 to 1000 nM, respectively. For the same compound, in the series with K562 cells, the “Effect of Exemplary Compounds” value is “B (B represents 100-1000 nM)”.
Turning to `Cc1c(O)c(-c2nc(-c3nnc[nH]3)c3cc(N4CCNCC4)ccc3n2)cc2cn(C)nc12` [Compound 522, 2,7-dimethyl-5-[6-(piperazin-1-yl)-4-(4H-1,2,4-triazol-3-yl)quinazolin-2-yl]indazol-6-ol; bis(trifluoroacetic acid)], the IC50 was greater than 10000 nM with Target C [1], 1000 to 10000 nM in the series on HTT and 1000 to 10000 nM in the series on Target C [2]. The “Effect of Exemplary Compounds” value in the series with K562 cells is given as “C (C represents 1000-9999 nM)”.
On to `Cc1c(O)c(-c2nc(C(N)=O)c3cc(N4CCNCC4)ccc3n2)cc2cn(C)nc12` [Compound 523, 2-(6-hydroxy-2,7-dimethylindazol-5-yl)-6-(piperazin-1-yl) quinazoline-4-carboxamide], for which the values for the IC50 in the series with Target C [1], in the series with HTT and in the series with Target C [2] were 1000 to 10000 nM, 100 to 1000 nM and 1000 to 10000 nM, respectively. For the same compound, the “Effect of Exemplary Compounds” value in the series with K562 cells is on record as “A (A represents <100 nM)”.
In the case of `Cc1c(O)c(-c2nc(C(=O)O)c3cc(N4CCNCC4)ccc3n2)cc2cn(C)nc12` [Compound 524, 2-(6-hydroxy-2,7-dimethylindazol-5-yl)-6-(piperazin-1-yl) quinazoline-4-carboxylic acid], the IC50 in the series on Target C [1], in the series with HTT and with Target C [2] was greater than 10000 nM in each case. Also, the “Effect of Exemplary Compounds” value in the series with K562 cells was “D (D represents greater than 10 μM in K562 cells)”.
For the compound `Cc1c(O)c(-c2ncc3cc(N4C[C@@H](C)N[C@@H](C)C4)ccc3n2)cc2cn(C)nc12` [Compound 525, 5-{6-[(3R,5S)-3,5-dimethylpiperazin-1-yl]quinazolin-2-yl}-2,7-dimethylindazol-6-ol], the concentration for half-maximal inhibition (IC50) with Target C [1] lay in the range of 1000 to 10000 nM; in the series on HTT it was 100 to 1000 nM; with Target C [2], 100 to 1000 nM. For the same compound, the “Effect of Exemplary Compounds” value with K562 cells was “B (B represents 100-1000 nM)”.
In the case of `Cc1c(O)c(-c2ncc3nc(N4C[C@@H](C)N[C@@H](C)C4)ccc3n2)cc2cn(C)nc12` [Compound 526, 5-{6-[(3R,5S)-3,5-dimethylpiperazin-1-yl]pyrido[3,2-d]pyrimidin-2-yl}-2,7-dimethylindazol-6-ol], the results for the IC50 in the series on Target C [1], in the series on HTT and in the series with Target C [2] were 1000 to 10000 nM, 100 to 1000 nM and 100 to 1000 nM, respectively. Further, the “Effect of Exemplary Compounds” value in the series on K562 cells is on record as “B (B represents 100-1000 nM)”.
As for `CNC(=O)c1nc(-c2cc3cn(C)nc3c(F)c2O)nc2ccc(N3C[C@@H](C)N[C@@H](C)C3)cc12` [Compound 527, 6-[(3R,5S)-3,5-dimethylpiperazin-1-yl]-2-(7-fluoro-6-hydroxy-2-methylindazol-5-yl)-N-methylquinazoline-4-carboxamide], the IC50 is 100 to 1000 nM in the series on Target C [1], less than 100 nM with HTT and 100 to 1000 nM with Target C [2]. The “Effect of Exemplary Compounds” value in the series with K562 cells is listed as “A (A represents <100 nM)”.
With `CNC(=O)c1nc(-c2cc3cn(C)nc3c(F)c2O)nc2ccc(N3CCC(N(C)C)CC3)cc12` [Compound 528, 6-[4-(dimethylamino)piperidin-1-yl]-2-(7-fluoro-6-hydroxy-2-methylindazol-5-yl)-N-methylquinazoline-4-carboxamide], the IC50 in the series on Target C [1] was in the range of 1000 to 10000 nM; with HTT, 100 to 1000 nM; in the series on Target C [2], 100 to 1000 nM. Also, the “Effect of Exemplary Compounds” value in the series on K562 cells is on record as “A (A represents <100 nM)”.
For the compound `CNC(=O)c1nc(-c2cc3cn(C)nc3c(F)c2O)nc2ccc(N3CCN[C@@H](C)C3)cc12` [Compound 529, 2-(7-fluoro-6-hydroxy-2-methylindazol-5-yl)-N-methyl-6-[(3S)-3-methylpiperazin-1-yl]quinazoline-4-carboxamide], the values for the IC50 with Target C [1], in the series on HTT and in the series on Target C [2] were 1000 to 10000 nM, less than 100 nM and 100 to 1000 nM, respectively. Besides, the “Effect of Exemplary Compounds” value in the series on K562 cells is reported as “A (A represents <100 nM)”.
In the case of `CNC(=O)c1nc(-c2cc3cn(C)nc3cc2O)nc2ccc(N3CCN[C@@H](C)C3)cc12` [Compound 530, 2-(6-hydroxy-2-methylindazol-5-yl)-N-methyl-6-[(3S)-3-methylpiperazin-1-yl]quinazoline-4-carboxamide], the IC50 in the series on Target C [1] was greater than 10000 nM; in the series with HTT it was 100 to 1000 nM; in the series with Target C [2], 100 to 1000 nM. For the same compound, the “Effect of Exemplary Compounds” value in the series on K562 cells is “A (A represents <100 nM)”.
For `CNC(=O)c1nc(-c2cc3cn(C)nc3cc2O)nc2ccc(N3C[C@@H](C)N[C@@H](C)C3)cc12` [Compound 531, 6-[(3R,5S)-3,5-dimethylpiperazin-1-yl]-2-(6-hydroxy-2-methylindazol-5-yl)-N-methylquinazoline-4-carboxamide], the IC50 in the series on Target C [1] is greater than 10000 nM; in the series on HTT, 100 to 1000 nM; in the series on Target C [2], 1000 to 10000 nM. The “Effect of Exemplary Compounds” value with K562 cells is “A (A represents <100 nM)”.
For `CNC(=O)c1nc(-c2cc3cn(C)nc3c(C)c2O)nc2ccc(N3CCNC4(CC4)C3)cc12` [Compound 532, 6-{4,7-diazaspiro[2.5]octan-7-yl}-2-(6-hydroxy-2,7-dimethylindazol-5-yl)-N-methylquinazoline-4-carboxamide] the same measures were greater than 10000 nM, 100 to 1000 nM, 100 to 1000 nM and “B (B represents 100-1000 nM)”.

Values taken from patent US20250092065A1, “2-(INDAZOL-5-YL)-6-(PIPERIDIN-4-YL)-1,7-NAPHTHYRIDINE DERIVATIVES AND RELATED COMPOUNDS AS MODULATORS FOR SPLICING NUCLEIC ACIDS AND FOR THE TREATMENT OF PROLIFERATIVE DISEASES” (REMIX THERAPEUTICS INC., priority 2022, published 2025).
